The text below walks through data of patent US20230043863A1, “HETEROAROMATIC DERIVATIVES FOR USE AS REGULATOR, PREPARATION METHOD THEREFOR AND USE THEREOF” (JIANGSU HANSOH PHARMACEUTICAL GROUP CO., LTD., priority 2018, published 2023).

In one series the target is TYK2 (Homo sapiens, UniProt P29597). Briefly: JAK kinase activity inhibition, TR-FRET (TYK2). The series is classed as biochemical. To be noted: TR-FRET kinase assay. The method, boiled down: (§1)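 Recombinant kinase at 0.1-20 nM, peptide substrate, ATP; room temperature, 0.5-5 h; EDTA stop, labeled-antibody TR-FRET readout; IC50 by curve fit.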
Chain of TYK2 (P29597 whole entry): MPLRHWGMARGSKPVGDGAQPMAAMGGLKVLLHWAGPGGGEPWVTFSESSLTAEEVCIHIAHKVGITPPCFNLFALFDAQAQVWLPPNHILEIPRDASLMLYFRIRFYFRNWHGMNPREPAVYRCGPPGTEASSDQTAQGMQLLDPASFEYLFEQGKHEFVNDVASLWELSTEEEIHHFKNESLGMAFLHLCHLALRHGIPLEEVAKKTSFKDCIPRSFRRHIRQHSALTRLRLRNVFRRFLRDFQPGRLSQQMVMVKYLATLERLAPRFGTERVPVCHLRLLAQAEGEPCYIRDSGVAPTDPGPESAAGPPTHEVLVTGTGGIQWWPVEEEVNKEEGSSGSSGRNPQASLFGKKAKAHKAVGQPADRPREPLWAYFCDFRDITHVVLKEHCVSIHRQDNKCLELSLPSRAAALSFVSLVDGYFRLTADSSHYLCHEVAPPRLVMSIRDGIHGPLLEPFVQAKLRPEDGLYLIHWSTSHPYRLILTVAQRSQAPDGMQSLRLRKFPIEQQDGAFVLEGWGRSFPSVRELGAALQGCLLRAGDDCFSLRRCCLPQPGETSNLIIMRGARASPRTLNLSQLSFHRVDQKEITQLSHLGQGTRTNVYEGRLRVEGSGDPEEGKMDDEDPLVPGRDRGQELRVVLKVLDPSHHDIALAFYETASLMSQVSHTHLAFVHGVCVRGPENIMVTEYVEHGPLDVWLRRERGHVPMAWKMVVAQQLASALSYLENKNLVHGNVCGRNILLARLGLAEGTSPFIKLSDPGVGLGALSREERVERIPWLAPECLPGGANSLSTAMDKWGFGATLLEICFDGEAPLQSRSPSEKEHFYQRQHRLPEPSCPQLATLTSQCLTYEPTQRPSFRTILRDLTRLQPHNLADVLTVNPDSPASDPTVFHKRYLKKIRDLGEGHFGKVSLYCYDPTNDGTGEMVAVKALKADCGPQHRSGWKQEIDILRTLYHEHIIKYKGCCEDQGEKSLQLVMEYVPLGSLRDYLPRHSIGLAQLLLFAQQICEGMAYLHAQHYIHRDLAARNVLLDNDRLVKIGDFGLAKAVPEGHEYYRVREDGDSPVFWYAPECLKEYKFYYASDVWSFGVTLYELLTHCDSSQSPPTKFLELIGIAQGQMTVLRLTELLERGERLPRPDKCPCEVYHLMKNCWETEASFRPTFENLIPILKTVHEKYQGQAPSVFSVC
Background: In TR-FRET formats the signal depends on donor and acceptor labels being close together.

The next series addresses JAK2 (Homo sapiens, UniProt O60674). Briefly: JAK kinase activity inhibition, TR-FRET (JAK2). The class given is biochemical. Particulars: TR-FRET kinase assay. The essentials:
as §1

The next series addresses JAK1 (Homo sapiens, UniProt P23458). Nature of the series: JAK kinase activity inhibition, TR-FRET (JAK1). The class given is biochemical. Particulars: TR-FRET kinase assay. The method, boiled down:
as §1

Series [1] in a line: Balb/C mouse pharmacokinetics (plasma, colon, ileum). The series is classed as in vivo. Particulars: male, po, Balb/C mice, p.o. 5 mg/kg; for Cmax: read-out: Blood concentration Cmax; for AUC(0-t): read-out: Curve area AUC0-t; for AUC(0-inf): read-out: Curve area AUC0-∞; for half-life: read-out: Half life period t1/2 (converted); for MRT: read-out: Mean detention time MRT; for Tmax: read-out: Time to peak tmax. The essentials:
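Male Balb/C mice (12 per group), fasted overnight, given 5 mg/kg p.o.; plasma, ileum and colon sampled at 0–7 h. Drug levels by LC/MS/MS, […]; parameters include colon/ileum and colon/plasma concentration ratios.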

Like-named read-outs stand apart in the source and are kept apart here.

A word on the IC50: it is the concentration that gives 50% inhibition. What is called MRT is the average time that molecules of a dose stay in the body. One may read the Tmax as the time at which the peak concentration occurs.

Chain of JAK1 (P23458 whole entry): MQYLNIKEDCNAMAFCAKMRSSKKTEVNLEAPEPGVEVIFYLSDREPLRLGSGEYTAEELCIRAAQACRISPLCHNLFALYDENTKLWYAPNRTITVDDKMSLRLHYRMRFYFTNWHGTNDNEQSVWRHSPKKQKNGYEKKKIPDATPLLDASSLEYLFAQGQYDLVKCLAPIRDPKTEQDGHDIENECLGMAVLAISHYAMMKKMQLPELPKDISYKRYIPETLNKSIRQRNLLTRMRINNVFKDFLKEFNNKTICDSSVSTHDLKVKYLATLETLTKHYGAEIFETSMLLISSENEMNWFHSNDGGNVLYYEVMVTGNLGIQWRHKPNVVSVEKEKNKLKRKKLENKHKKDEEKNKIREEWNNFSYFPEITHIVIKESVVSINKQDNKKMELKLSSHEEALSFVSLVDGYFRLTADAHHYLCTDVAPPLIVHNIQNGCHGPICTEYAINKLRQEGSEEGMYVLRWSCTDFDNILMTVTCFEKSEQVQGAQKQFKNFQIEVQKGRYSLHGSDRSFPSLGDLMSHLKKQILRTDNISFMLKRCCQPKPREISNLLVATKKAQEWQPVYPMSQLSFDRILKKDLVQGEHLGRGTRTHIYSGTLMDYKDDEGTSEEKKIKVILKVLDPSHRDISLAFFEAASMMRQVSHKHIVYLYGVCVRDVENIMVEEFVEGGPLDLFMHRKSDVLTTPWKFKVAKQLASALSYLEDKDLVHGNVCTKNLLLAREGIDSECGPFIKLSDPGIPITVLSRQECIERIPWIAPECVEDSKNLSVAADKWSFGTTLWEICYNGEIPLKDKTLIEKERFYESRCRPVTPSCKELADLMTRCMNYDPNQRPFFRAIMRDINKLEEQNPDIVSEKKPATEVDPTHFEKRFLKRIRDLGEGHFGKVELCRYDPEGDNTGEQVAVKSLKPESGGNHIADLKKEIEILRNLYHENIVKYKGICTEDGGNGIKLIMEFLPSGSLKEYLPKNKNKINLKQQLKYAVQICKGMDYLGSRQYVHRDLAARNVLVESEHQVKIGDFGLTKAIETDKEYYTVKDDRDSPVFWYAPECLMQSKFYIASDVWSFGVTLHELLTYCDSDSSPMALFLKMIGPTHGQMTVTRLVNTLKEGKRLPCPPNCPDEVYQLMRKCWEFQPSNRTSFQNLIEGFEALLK
Chain of JAK2 (O60674 whole entry): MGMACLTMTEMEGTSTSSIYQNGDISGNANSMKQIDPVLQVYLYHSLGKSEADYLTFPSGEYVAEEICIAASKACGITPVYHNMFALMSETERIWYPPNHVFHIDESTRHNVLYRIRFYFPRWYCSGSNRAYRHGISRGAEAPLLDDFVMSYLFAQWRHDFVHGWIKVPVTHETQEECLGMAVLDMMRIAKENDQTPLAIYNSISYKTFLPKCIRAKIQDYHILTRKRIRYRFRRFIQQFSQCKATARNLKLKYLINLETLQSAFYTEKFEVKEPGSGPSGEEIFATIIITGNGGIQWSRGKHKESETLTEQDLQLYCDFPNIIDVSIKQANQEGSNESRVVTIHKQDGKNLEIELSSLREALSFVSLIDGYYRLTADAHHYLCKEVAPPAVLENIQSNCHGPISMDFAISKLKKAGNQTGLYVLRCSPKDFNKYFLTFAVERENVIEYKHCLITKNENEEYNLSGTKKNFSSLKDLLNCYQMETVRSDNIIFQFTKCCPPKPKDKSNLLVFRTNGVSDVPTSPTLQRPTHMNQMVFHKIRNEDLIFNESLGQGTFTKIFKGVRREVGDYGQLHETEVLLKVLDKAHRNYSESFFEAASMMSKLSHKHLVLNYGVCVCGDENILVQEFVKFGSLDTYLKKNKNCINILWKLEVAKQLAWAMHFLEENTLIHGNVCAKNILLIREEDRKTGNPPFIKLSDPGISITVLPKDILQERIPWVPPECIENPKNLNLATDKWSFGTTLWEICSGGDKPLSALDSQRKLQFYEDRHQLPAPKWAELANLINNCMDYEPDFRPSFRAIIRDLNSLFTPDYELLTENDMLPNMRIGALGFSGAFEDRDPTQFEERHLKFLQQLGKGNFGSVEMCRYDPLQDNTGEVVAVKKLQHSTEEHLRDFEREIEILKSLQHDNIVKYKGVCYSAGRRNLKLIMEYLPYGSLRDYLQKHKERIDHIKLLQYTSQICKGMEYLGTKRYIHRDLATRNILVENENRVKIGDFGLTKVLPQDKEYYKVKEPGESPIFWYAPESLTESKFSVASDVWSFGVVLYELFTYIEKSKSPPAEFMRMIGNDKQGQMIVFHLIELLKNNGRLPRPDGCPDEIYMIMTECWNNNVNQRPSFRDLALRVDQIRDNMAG

Consider `Cc1cc(Nc2nc(N[C@@H]3C[C@H]4CC[C@@H](C3)N4CCC#N)nc3cc(Cl)ccc23)n[nH]1` [Embodiment 171, 3-((3-exo)-3-((7-chloro-4-((5-methyl-1H-pyrazol-3-yl)amino)quinazolin-2-yl)amino)-8-azabicyclo[3.2.1]oct-8-yl)propionitrile], for which, at TYK2, the IC50 amounted to 0.6 nM. For the same compound, the IC50 at JAK2 stood at 0.67 nM. On JAK1, the half-maximal inhibitory concentration (IC50) was 0.85 nM. In series [1] (plasma, blood), the Cmax amounted to 8.91 ng/mL, the AUC(0-t) was 23.4 ng·h/mL, the AUC(0-inf) came out at 26.7 ng·h/mL and the half-life was 116 min. Further, in series [1] (plasma, blood), the MRT was determined as 3.05 h and the Tmax came out at 2 h. Besides, in series [1] (colon), the Cmax is 438 ng/mL, the AUC(0-t) came out at 2010 ng·h/mL, the mean residence time MRT amounted to 4.24 h and the Tmax worked out at 3 h. For the same compound, in series [1] (ileum), the Cmax came to 17000 ng/mL, the AUC(0-t) worked out at 79800 ng·h/mL, the MRT worked out at 3.35 h and the time to peak (Tmax) was determined as 3 h.
`Cc1cc(Nc2nc(N[C@@H]3C[C@H]4CC[C@@H](C3)N4CCC#N)nc3ccsc23)n[nH]1` [Embodiment 60, 3-((3-exo)-3-((4-((5-methyl-1H-pyrazol-3-yl)amino)thieno[3,2-d]pyrimidin-2-yl)amino)-8-azabicyclo[3.2.1]oct-8-yl)propionitrile]: the IC50 on TYK2 is 0.46 nM. Further, on JAK1, the IC50 amounted to 0.12 nM. In series [1] (plasma, blood), the Cmax was found to be 10.3 ng/mL, the AUC(0-t) amounted to 31.1 ng·h/mL, the AUC(0-inf) was 32.9 ng·h/mL and the half-life is 84.6 min. In addition, in series [1] (plasma, blood), the MRT amounted to 2.58 h and the Tmax worked out at 2 h. In series [1] (colon), the Cmax turned out to be 2310 ng/mL, the AUC(0-t) stood at 9130 ng·h/mL, the mean residence time MRT was found to be 3.83 h and the time to peak (Tmax) came to 5 h. In series [1] (ileum), the Cmax amounted to 26100 ng/mL, the AUC(0-t) worked out at 98000 ng·h/mL, the AUC(0-inf) turned out to be 103000 ng·h/mL and the half-life is 75.6 min. Moreover, in series [1] (ileum), the MRT worked out at 2.49 h and the Tmax was 1 h.
In the case of `Cc1cc(Nc2nc(N[C@@H]3C[C@H]4CC[C@@H](C3)N4CCC#N)nc3sc(C)cc23)n[nH]1` [Embodiment 277, 3-((3-exo)-3-((6-methyl-4-((5-methyl-1H-pyrazol-3-yl)amino)thieno[2,3-d]pyrimidin-2-yl)amino)-8-azabicyclo[3.2.1]oct-8-yl)propionitrile], at TYK2, the IC50 was found to be 0.58 nM. Further, the IC50 on JAK2 turned out to be 1.01 nM. For the same compound, at JAK1, the IC50 was 0.61 nM. Besides, in series [1] (plasma, blood), the Cmax was 12 ng/mL, the AUC(0-t) turned out to be 29.1 ng·h/mL, the AUC(0-inf) came out at 31.1 ng·h/mL and the half-life was 57.6 min. In addition, in series [1] (plasma, blood), the MRT worked out at 2.53 h and the Tmax is 2 h. In series [1] (colon), the Cmax was determined as 649 ng/mL, the AUC(0-t) is 2890 ng·h/mL, the mean residence time (MRT) was determined as 3.89 h and the Tmax turned out to be 7 h. Besides, in series [1] (ileum), the Cmax was 18700 ng/mL, the AUC(0-t) came to 43000 ng·h/mL, the AUC(0-inf) is 43300 ng·h/mL and the half-life was 55.2 min. In addition, in series [1] (ileum), the MRT was determined as 1.77 h and the Tmax was found to be 1 h.
Consider `Cc1cc(Nc2nc(N(C)[C@@H]3C[C@H]4CCC[C@@H](C3)N4C(=O)CN3CCN(C)CC3)nc3sccc23)n[nH]1` [Embodiment 257, 1-((3-exo)-3-(methyl(4-((5-methyl-1H-pyrazol-3-yl)amino)thieno[2,3-d]pyrimidin-2-yl)amino)-9-azabicyclo[3.3.1]non-9-yl)-2-(4-methylpiperazin-1-yl)ethane-1-one], for which the concentration for half-maximal inhibition (IC50) at TYK2 is 0.2 nM. Further, the IC50 on JAK2 came out at 0.83 nM. In addition, on JAK1, the half-inhibitory concentration (IC50) was found to be 0.07 nM. In addition, in series [1] (plasma, blood), the Cmax is 33.9 ng/mL, the AUC(0-t) amounted to 64.7 ng·h/mL, the AUC(0-inf) was determined as 64.8 ng·h/mL and the half-life was 73.2 min. In series [1] (plasma, blood), the MRT turned out to be 2.18 h and the time to peak (Tmax) is 1 h. For the same compound, in series [1] (colon), the Cmax is 3990 ng/mL, the AUC(0-t) was 12300 ng·h/mL, the mean residence time (MRT) worked out at 4.24 h and the time to peak (Tmax) is 5 h. Also, in series [1] (ileum), the Cmax stood at 25800 ng/mL, the AUC(0-t) came to 104000 ng·h/mL, the AUC(0-inf) came out at 123000 ng·h/mL and the half-life is 119 min. Besides, in series [1] (ileum), the mean residence time MRT was 3.07 h and the Tmax turned out to be 3 h.
As to `Cc1cc(Nc2nc(N[C@@H]3C[C@H]4CCC[C@@H](C3)N4C(=O)CN3CCOCC3)nc3sccc23)n[nH]1` [Embodiment 246, 1-((3-exo)-3-((4-((5-methyl-1H-pyrazol-3-yl)amino)thieno[2,3-d]pyrimidin-2-yl)amino)-9-azabicyclo[3.3.1]non-9-yl)-2-morpholinoethane-1-one], the concentration for half-maximal inhibition (IC50) on TYK2 was determined as 1.88 nM. At JAK2, the concentration for half-maximal inhibition (IC50) was 0.71 nM. Further, at JAK1, the half-maximal inhibitory concentration (IC50) was found to be 0.22 nM. Moreover, in series [1] (plasma, blood), the Cmax was found to be 5.56 ng/mL, the AUC(0-t) came to 4.76 ng·h/mL, the MRT was found to be 1.46 h and the Tmax turned out to be 2 h. In series [1] (colon), the Cmax worked out at 3260 ng/mL, the AUC(0-t) was determined as 13800 ng·h/mL, the MRT turned out to be 4.79 h and the time of peak concentration (Tmax) was 7 h. In series [1] (ileum), the Cmax amounted to 16800 ng/mL, the AUC(0-t) came to 27900 ng·h/mL, the AUC(0-inf) amounted to 28400 ng·h/mL and the half-life is 109 min. For the same compound, in series [1] (ileum), the mean residence time (MRT) was 1.28 h and the Tmax amounted to 1 h.
For `Cc1cc(Nc2nc(N[C@@H]3C[C@H]4CCC[C@@H](C3)N4C(=O)c3ccccn3)nc3sccc23)n[nH]1` [Embodiment 260, ((3-exo)-3-((4-((5-methyl-1H-pyrazol-3-yl)amino)thieno[2,3-d]pyrimidin-2-yl)amino)-9-azabicyclo[3.3.1]non-9-yl)(pyridin-2-yl)methanone], on TYK2, the IC50 turned out to be 0.225 nM. For the same compound, the IC50 at JAK2 is 0.36 nM. In addition, the concentration for half-maximal inhibition (IC50) on JAK1 amounted to 0.19 nM. For the same compound, in series [1] (plasma, blood), the Cmax is 24 ng/mL, the AUC(0-t) is 27.3 ng·h/mL, the AUC(0-inf) turned out to be 29.4 ng·h/mL and the half-life is 94.2 min. Further, in series [1] (plasma, blood), the mean residence time (MRT) stood at 1.37 h and the Tmax was determined as 1 h. Further, in series [1] (colon), the Cmax turned out to be 8880 ng/mL, the AUC(0-t) was found to be 24400 ng·h/mL, the MRT turned out to be 3.39 h and the Tmax is 3 h. In series [1] (ileum), the Cmax was determined as 9080 ng/mL, the AUC(0-t) came to 18500 ng·h/mL, the AUC(0-inf) worked out at 18700 ng·h/mL and the half-life was 60.6 min. In series [1] (ileum), the mean residence time (MRT) turned out to be 1.57 h and the Tmax was 1 h.
Regarding `Cc1cc(Nc2nc(N[C@@H]3C[C@H]4CC[C@@H](C3)N4S(=O)(=O)N3CC(C#N)C3)nc3sccc23)n[nH]1` [Embodiment 237, 1-(((3-exo)-3-((4-((5-methyl-1H-pyrazol-3-yl)amino)thieno[2,3-d]pyrimidin-2-yl)amino)-8-azabicyclo[3.2.1]oct-8-yl)sulfonyl)azetindin-3-formonitrile], the half-inhibitory concentration (IC50) at TYK2 is 0.32 nM. Moreover, the half-maximal inhibitory concentration (IC50) at JAK2 came to 0.79 nM. In addition, the half-maximal inhibitory concentration (IC50) on JAK1 was determined as 0.07 nM. In series [1] (plasma, blood), the Cmax was 7.12 ng/mL, the AUC(0-t) stood at 11 ng·h/mL, the mean residence time MRT turned out to be 1.73 h and the time to peak (Tmax) worked out at 2 h. In series [1] (colon), the Cmax was 2210 ng/mL, the AUC(0-t) was 6460 ng·h/mL, the AUC(0-inf) was 7240 ng·h/mL and the half-life was 91.2 min. Moreover, in series [1] (colon), the MRT amounted to 3.43 h and the Tmax turned out to be 3 h. Besides, in series [1] (ileum), the Cmax came out at 4140 ng/mL, the AUC(0-t) amounted to 15300 ng·h/mL, the AUC(0-inf) came to 15400 ng·h/mL and the half-life is 33 min. For the same compound, in series [1] (ileum), the mean residence time (MRT) was determined as 2.43 h and the time to peak (Tmax) was found to be 3 h.
Take `Cc1cc(Nc2nc(N[C@@H]3C[C@H]4CC[C@@H](C3)N4CCC#N)nc3cc(Br)ccc23)n[nH]1` [Embodiment 170, 3-((3-exo)-3-((7-bromine-4-((5-methyl-1H-pyrazol-3-yl)amino)quinazolin-2-yl)amino)-8-azabicyclo[3.2.1]oct-8-yl)propionitrile]: the IC50 on TYK2 came out at 0.225 nM. Besides, the half-maximal inhibitory concentration (IC50) at JAK1 was 0.66 nM. Further, in series [1] (plasma, blood), the Cmax stood at 16 ng/mL, the AUC(0-t) worked out at 36.7 ng·h/mL, the MRT was found to be 4.13 h and the Tmax is 7 h. In addition, in series [1] (colon), the Cmax amounted to 4320 ng/mL, the AUC(0-t) was 13000 ng·h/mL, the MRT is 3.36 h and the Tmax came to 3 h. Moreover, in series [1] (ileum), the Cmax is 49900 ng/mL, the AUC(0-t) is 118000 ng·h/mL, the AUC(0-inf) stood at 172000 ng·h/mL and the half-life was 329 min. In series [1] (ileum), the mean residence time (MRT) is 2.19 h and the time of peak concentration (Tmax) came out at 1 h.
